Values of other authors in patent US11291622B2, “Method for dyeing keratinous material, comprising the use of an organosilicon compound, a dyeing compound and a silicon oil” (Henkel AG & Co. KGaA, priority 2018, dated 2022).
Where two headings read alike, the source gives them in different places.

solubility in water (25° C.) | solubility in water (at about 25° C.) | Compound
– | highly soluble in water | O=C([O-])C1=NN(c2ccc(S(=O)(=O)[O-])cc2)C(=O)C1N=Nc1ccc(S(=O)(=O)[O-])cc1.[Na+].[Na+].[Na+] (centres unmarked) [Acid Yellow 23, trisodium salt of 4,5-dihydro-5-oxo-1-(4-sulfophenyl)-4-((4-sulfophenyl)azo)-1H-pyrazole-3-carboxylic acid]
about 20 g/L | – | mixture of the sodium salts of mono- and disulfonic acids of 2-(2-quinolyl)-1H-indene-1,3(2H)-dione [Acid Yellow 3]

Second part, the compound before the results:

Compound | solubility in water (25° C.) | solubility in water (at about 25° C.)
Nc1cc(S(=O)(=O)[O-])cc2cc(S(=O)(=O)[O-])c(N=Nc3ccccc3)c(O)c12.[Na+].[Na+] [Acid Red 33, diantrium salt of 5-amino-4-hydroxy-3-(phenylazo)-naphthalene-2,7-disulphonate] | about 2.5 g/L | –
CCN(Cc1cccc(S(=O)(=O)[O-])c1)c1ccc(C(=C2C=CC(=[N+](CC)Cc3cccc(S(=O)(=O)[O-])c3)C=C2)c2ccccc2S(=O)(=O)[O-])cc1.[Na+].[Na+] [Acid Blue 9] | more than 20 % by weight | –
O=S(=O)([O-])c1ccc(N=Nc2c(O)ccc3ccccc23)cc1.[Na+] [Acid Orange 7, sodium salt of 4-[(2-hydroxy-1-naphthyl)azo]benzene sulphonate] | more than 7 g/L | –
